Experimental data from PubChem BioAssay (NCI).
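Five compound concentrations were applied to cells in 96-well plates for 48 hours; endpoints were derived by simple linear interpolation of the resulting dose-response curve. TGI: concentration producing complete growth inhibition.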

Assays:
Experiment in all cases: inhibition of tumour cell growth, NCI panel, 48 h
[1] = system: DU-145 prostate
[2] = system: UACC-62 melanoma
[3] = system: NCI-H522 lung
[4] = system: PC-3 prostate
[5] = system: SF-295 CNS
[6] = system: COLO 205 colon
[7] = system: SR leukemia
[8] = system: U251 CNS
[9] = system: MALME-3M melanoma
[10] = system: SK-MEL-28 melanoma
[11] = system: HT29 colon
[12] = system: OVCAR-4 ovarian
[13] = system: LOX IMVI melanoma
[14] = system: EKVX NSCLC
[15] = system: RPMI-8226 leukemia
[16] = system: HL-60(TB) leukemia
[17] = system: SNB-75 CNS
[18] = system: BT-549 breast
[19] = system: RXF 393 renal
[20] = system: CCRF-CEM leukemia

Compound	TGI [1]	TGI [2]	TGI [3]	TGI [4]	TGI [5]	TGI [6]	TGI [7]	TGI [8]	TGI [9]	TGI [10]	TGI [11]	TGI [12]	TGI [13]	TGI [14]	TGI [15]	TGI [16]	TGI [17]	TGI [18]	TGI [19]	TGI [20]
NCC#CCNCCCN1CC1	> 100 µM	> 100 µM	> 100 µM	> 100 µM	> 100 µM	> 100 µM	> 100 µM	> 100 µM	> 100 µM	> 100 µM	> 100 µM	> 100 µM	> 100 µM	> 100 µM	> 100 µM	> 100 µM				
Cn1c(=O)[nH]c2[nH]c3ccccc3c2c1=O	> 100 µM	> 100 µM	> 100 µM		> 100 µM	> 100 µM	> 100 µM	> 100 µM	> 100 µM	> 100 µM	> 100 µM		> 100 µM	> 100 µM	> 100 µM	> 100 µM	> 100 µM	> 100 µM	> 100 µM	> 100 µM
CCCN1CN(C(C(=O)N[C@@H]2C(=O)N3C2SC(C)(C)C3C(=O)O)c2ccccc2)CSC1=S (stereo not given in full)		> 100 µM	81.5 µM		> 100 µM	> 100 µM		> 100 µM	> 100 µM	> 100 µM	> 100 µM	> 100 µM	> 100 µM	> 100 µM	> 100 µM	> 100 µM	> 100 µM			> 100 µM
CC(C)OCC(O)COc1ccc2ccc(=O)oc2c1 (stereo not given)	> 100 µM	> 100 µM	> 100 µM	> 100 µM	> 100 µM	> 100 µM		> 100 µM	> 100 µM	> 100 µM	> 100 µM	> 100 µM	> 100 µM	> 100 µM	> 100 µM	> 100 µM	> 100 µM			> 100 µM
CCOC(=O)c1nc2ccccc2nc1NCc1ccc(OC)cc1	> 100 µM	> 100 µM	> 100 µM		> 100 µM	> 100 µM	> 100 µM	> 100 µM	> 100 µM	> 100 µM	> 100 µM	> 100 µM	> 100 µM	> 100 µM	> 100 µM	> 100 µM	> 100 µM	> 100 µM	71.5 µM	> 100 µM
CC(C)(C)[Si](C)(C)OCCCCC1CC2(S(=O)(=O)C3=CC=C=C=C3)ON1CC2S(=O)(=O)c1ccccc1 (stereo not given)	> 100 µM	> 100 µM				> 100 µM		> 100 µM		> 100 µM	> 100 µM	> 100 µM		> 100 µM	> 100 µM		> 100 µM	> 100 µM	> 100 µM	
CCc1ccc(Nc2cc(=O)[nH]c(SCc3ccccc3)n2)cc1	> 100 µM	> 100 µM	> 100 µM		> 100 µM	> 100 µM	> 100 µM		> 100 µM		> 100 µM		> 100 µM	> 100 µM	> 100 µM	> 100 µM	> 100 µM	> 100 µM	> 100 µM	> 100 µM
CCOP(=O)(OCC)C1CC(O)CN1OC(=O)C(C)(C)C (stereo not given)	> 100 µM	> 100 µM		> 100 µM	> 100 µM	> 100 µM	> 100 µM	> 100 µM	> 100 µM	> 100 µM	> 100 µM	> 100 µM	> 100 µM	> 100 µM	> 100 µM		> 100 µM			> 100 µM
COC1O[C@@H]2CCN3C(=O)[C@@H](OC(=O)c4ccc([N+](=O)[O-])cc4)[C@H]1C23 (stereo not given in full)	> 100 µM	> 100 µM	> 100 µM		> 100 µM	> 100 µM	> 100 µM	> 100 µM			> 100 µM		> 100 µM	> 100 µM	> 100 µM		> 100 µM		> 100 µM	> 100 µM
O=C1OCC2(CO1)CC1C=CC2C1 (stereo not given)	> 100 µM	> 100 µM	> 100 µM	> 100 µM	> 100 µM	> 100 µM	> 100 µM	> 100 µM	> 100 µM	> 100 µM	> 100 µM	> 100 µM	> 100 µM	> 100 µM	> 100 µM	> 100 µM			> 100 µM	
O=C(NCc1ccccc1)c1cc2cc(O)c(O)cc2cn1		44.8 µM	> 100 µM		> 100 µM	> 100 µM	> 100 µM	> 100 µM	> 100 µM	> 100 µM	70.4 µM	> 100 µM	66.4 µM	> 100 µM	> 100 µM	48.6 µM	84.5 µM		62.3 µM	> 100 µM
CC1(C)CC[C@]2(C(=O)O)CC[C@]3(C)C(=CC[C@@H]4[C@@]5(C)C[C@H](O)[C@H](O)[C@@](C)(CO)C5=CC[C@]43C)[C@@H]2C1	> 100 µM	> 100 µM	> 100 µM	> 100 µM	> 100 µM	42.4 µM	> 100 µM	> 100 µM	> 100 µM	> 100 µM	> 100 µM	68.5 µM	> 100 µM	> 100 µM	> 100 µM	> 100 µM	> 100 µM			> 100 µM
CCOc1ccccc1N=Nc1c(-c2ccccc2)nn(C(=O)CC(=O)Nc2cccc(Cl)c2)c1-c1ccccc1		> 100 µM	> 100 µM		> 100 µM	> 100 µM	> 100 µM	> 100 µM	> 100 µM	> 100 µM	> 100 µM	> 100 µM	> 100 µM	> 100 µM	> 100 µM	> 100 µM	> 100 µM		> 100 µM	> 100 µM
C[C@]12CCC(=O)C=C1CC[C@@H]1[C@@H]2CC[C@]2(C)C(=O)[C@H](n3ccnc3)C[C@@H]12	> 100 µM	> 100 µM	> 100 µM	> 100 µM	> 100 µM	> 100 µM	> 100 µM	> 100 µM	> 100 µM	> 100 µM	> 100 µM	> 100 µM	> 100 µM	> 100 µM	> 100 µM	> 100 µM	> 100 µM		> 100 µM	> 100 µM
CCOC(=O)C(Cc1ccccc1)NC(=O)c1ccc(N=NN(C)C)cc1 (stereo not given)		> 100 µM	> 100 µM		> 100 µM	> 100 µM	> 100 µM	> 100 µM	> 100 µM	> 100 µM	> 100 µM	> 100 µM	> 100 µM	> 100 µM	> 100 µM	> 100 µM	> 100 µM			> 100 µM
COC1=NC(NC2OCC(O)C(O)C2O)=C(NC(C)=O)CN1C (stereo not given)	> 100 µM	> 100 µM	> 100 µM		> 100 µM	> 100 µM			> 100 µM	> 100 µM	> 100 µM	> 100 µM	> 100 µM	> 100 µM	> 100 µM	> 100 µM	> 100 µM	> 100 µM	> 100 µM	> 100 µM
C=CCNC(=S)N1c2ccccc2NC(=O)CC1C (stereo not given)		> 100 µM	> 100 µM		> 100 µM	> 100 µM	> 100 µM	> 100 µM	> 100 µM	> 100 µM	> 100 µM	> 100 µM	> 100 µM	> 100 µM	> 100 µM	> 100 µM	> 100 µM		> 100 µM	> 100 µM
O=C(C#CP(=O)(O)c1ccccc1)c1ccccc1	> 100 µM	> 100 µM	> 100 µM	> 100 µM	> 100 µM	> 100 µM	> 100 µM	> 100 µM	> 100 µM	> 100 µM	> 100 µM	> 100 µM	> 100 µM	> 100 µM			> 100 µM			
O=C1c2cccnc2S(=O)N1Cc1ccccc1 (stereo not given)	> 100 µM	> 100 µM	> 100 µM		> 100 µM	> 100 µM	> 100 µM	> 100 µM	> 100 µM	> 100 µM	> 100 µM	> 100 µM		> 100 µM	> 100 µM		> 100 µM	> 100 µM	> 100 µM	> 100 µM
CCCCCCCC/C=C\CCCCCCC(F)C(=O)O (stereo not given)	> 12.5 µM		> 12.5 µM	> 12.5 µM	> 12.5 µM	> 12.5 µM	> 12.5 µM	> 12.5 µM	> 12.5 µM	> 12.5 µM	> 12.5 µM	> 12.5 µM	> 12.5 µM	> 12.5 µM	> 12.5 µM	> 12.5 µM	> 12.5 µM		> 12.5 µM	> 12.5 µM
COc1ccc(-c2c(C#N)c(-c3ccc(C)cc3)n(NS(=O)(=O)c3ccccc3)c(=O)c2C#N)cc1		> 100 µM	> 100 µM	> 100 µM	> 100 µM	> 100 µM		> 100 µM	> 100 µM	> 100 µM	> 100 µM	> 100 µM	> 100 µM	> 100 µM	39.4 µM	52.3 µM	> 100 µM	> 100 µM	> 100 µM	> 100 µM
COc1ccc(CNC2=C(NC(C)=O)C(=O)c3ccccc3C2=O)cc1		33.5 µM	5.17 µM		> 50 µM	16.4 µM	> 50 µM	47.5 µM	15.2 µM	> 50 µM	> 50 µM	15.1 µM	18.7 µM	47.3 µM		7.45 µM	49.5 µM		12.8 µM	24.7 µM
